Source: ChEMBL document CHEMBL1158817, “Hyrtioerectines A-C, cytotoxic alkaloids from the red sea sponge hyrtioserectus” (J Nat Prod, 2005)
In brackets after ≈: the same amount, converted by molar mass.

Tested on: HeLa
Test: Cytotoxicity against human HeLa cells by Fukuzawa's method
Type: functional, cell-based

| Compound | IC50 |
| --- | --- |
| O=C(O)C(=O)c1c(-c2c[nH]c3cc(O)ccc23)ncc2[nH]c3ccc(O)cc3c12 [HYRTIOERECTINE A] | 10 µg/mL (≈ 25.8 µM) |
| C[C@H]1N[C@@H](C(=O)O)Cc2c1[nH]c1ccc(O)cc21 [HYRTIOERECTINE B] | 5 µg/mL (≈ 20.3 µM) |
| O=C(O)[C@H](O)Cc1c[nH]c2ccc(O)cc12 [HYRTIOERECTINE C] | 4.5 µg/mL (≈ 20.3 µM) |
